Measurements taken from patent publication US20140142180A1, “METHODS OF TREATING TUMORS HAVING ELEVATED MCT1 EXPRESSION” (Whitehead Institute for Biomedical Research, priority 2012, published 2014).

What was measured:
[1] = tested on: ER negative cells; experiment: 3-BrPA sensitivity of ER negative tumor cell lines; assay type: cell-based; details: MCT1 expressed at high levels
[2] = tested on: MDA-MB-231 cells; experiment: Cell survival assay, MDA-MB-231; assay type: cell-based, human
Protocol: (§1) Cell lines (5,000-20,000) were seeded in 96-well plates and treated with indicated amounts of 3-BrPA. After 3 days of treatment, CellTiter-Glo (Promega) and/or CyQuant (Invitrogen) were used to measure survival percentage for each concentration compared to untreated cells. FACS analysis with Annexin V and 7AAD staining was performed according to manufacturer's manual (BD Pharmingen).
(§2) 15 cell lines (BT-474, BT-549, CAK1-1, CAL-51, HCC-70, HS578T, JURKAT, MDA-MB-157, MDA-MB-231, MDA-MB-453, MDA-MB-468, PC-3, SK-BR-3, T47D, ZR-75-1) were treated with 3-BrPA (0-300 μM). After 3 days, cell viability was quantified via CellTiter-Glo assay and an IC50 from the resulting dose-response curve was interpolated using a nonlinear regression model. Transcriptome-wide normalized mRNA levels from gene expression profiling experiments performed on the Affymetrix Human Genome U133 Plus 2.0 chip were obtained from the CCLE for all 15 cell lines. The mRNA expression pattern across all 15 samples for each of the genes was then correlated with the IC50 values. Similar correlation analysis was performed using OCR/ECAR values for each cell line.

[3] = tested on: SK-BR-3 cells; experiment: Cell survival assay, SK-BR-3; assay type: cell-based, human
Protocol: as §1, §2

[4] = tested on: BT-549 cells; experiment: Cell survival assay, BT-549; assay type: cell-based, human
Protocol: as §1, §2

[5] = tested on: breast cancer lines; experiment: 3-BrPA sensitivity versus MCT1 protein level in breast cancer lines; assay type: cell-based, human
Protocol: as §1
(§3) Briefly, cells were rinsed twice in ice-cold PBS and harvested in a standard lysis buffer containing 50 mM Hepes, pH 7.4, 40 mM NaCl, 2 mM EDTA, 1.5 mM orthovanadate, 50 mM NaF, 10 mM pyrophosphate, 10 mM glycerophosphate, protease inhibitors (Roche) and 1% Triton-X-100. Proteins from total lysates were resolved by 8-12% SDS-PAGE, and analyzed by immunoblotting as described using anti-MCT1 (Millipore; Ab3540), anti-RPS6 and anti-raptor antibodies (1:1000)^50. For quantitation, ImageJ software was used and the signals were normalized using an equal loading control (RPS6/Raptor). Immunohistochemistry was performed on formalin-fixed paraffin embedded sections using a boiling Dako antigen retrieval method (Dako). A 1:500 dilution of the anti-MCT1 antibody was used for staining.

[6] = tested on: MDA-MB-468 cells; experiment: Cell survival assay, MDA-MB-468; assay type: cell-based, human
Protocol: as §1, §2

[7] = tested on: AMPK and ACC phosphorylation; experiment: Immunoblot of AMPK and ACC phosphorylation, MCT1-null KBM7 cells; assay type: cell-based, human; details: 50 μM 3-BrPA
Protocol: as §3

[8] = tested on: parental KBM7 cells; experiment: Extracellular flux analysis (ECAR), parental KBM7 cells; assay type: cell-based, human; details: 50 μM 3-BrPA
Protocol: The bioenergetic profiles of KBM7 and MDA-MB-231 cells in response to 3-BrPA were determined using a Seahorse Bioscience XF24 Extracellular Flux Analyzer (Seahorse Bioscience). For the indicated experiments, 250,000 KBM7 or 40,000 MDA-MB-231 cells seeded in Seahorse tissue culture plates using unbuffered RPMI (10 mM Glucose). KBM7 cells were attached to the plates using CellTak (Clontech) one hour prior to the start of the experiment. For AUC (area under the curve) OCR and ECAR measurements, three consecutive readings were performed for each cell line. For experiments where 3-BrPA is used, after 3 consecutive readings, 50 μM 3-BrPA was injected through port A and ECAR and OCAR levels were measured. Lactate production was measured as described previously^50. For ATP assays, 20,000 cells were seeded and treated for 30 min with indicated amounts of 3-BrPA and ATP levels were determined using a luciferase-based assay (Promega). For metabolite measurements, 10 million wild type and MCT1 null KBM7 cells were cultured for 1 hour in presence of 50 μM 3-BrPA before metabolite extraction. Then, cells were rapidly washed three times with cold PBS, and then metabolites were extracted by addition of 80% ice-cold methanol followed after incubation on dry ice for 15 min. Endogenous metabolite profiles were obtained using LC-MS as described^51. Metabolite levels (n=3) were normalized to cell number.

[9] = biological target: T1, MCT1 (Homo sapiens, UniProt P53985); experiment: 14C-3-BrPA uptake assay, wild type KBM7 cells; assay type: cell-based
T1 construct: endogenous in cells; host or cells: wild type KBM7 cells (near-haploid human cell line)
T1 sequence (P53985 1-500): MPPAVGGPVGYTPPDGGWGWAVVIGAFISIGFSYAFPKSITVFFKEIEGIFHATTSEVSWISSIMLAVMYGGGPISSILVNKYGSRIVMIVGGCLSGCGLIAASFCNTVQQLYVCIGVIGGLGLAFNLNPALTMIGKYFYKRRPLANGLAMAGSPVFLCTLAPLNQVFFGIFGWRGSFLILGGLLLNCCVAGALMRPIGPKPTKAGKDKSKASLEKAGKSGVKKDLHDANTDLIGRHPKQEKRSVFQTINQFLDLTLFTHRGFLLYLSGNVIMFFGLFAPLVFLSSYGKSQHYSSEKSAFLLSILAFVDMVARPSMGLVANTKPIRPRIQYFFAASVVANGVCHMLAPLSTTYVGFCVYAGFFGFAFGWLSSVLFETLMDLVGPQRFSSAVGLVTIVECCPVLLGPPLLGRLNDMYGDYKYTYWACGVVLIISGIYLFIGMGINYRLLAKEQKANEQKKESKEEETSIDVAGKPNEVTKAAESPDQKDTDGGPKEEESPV
T1 sequence (P35613 140-385 partner limits assumed): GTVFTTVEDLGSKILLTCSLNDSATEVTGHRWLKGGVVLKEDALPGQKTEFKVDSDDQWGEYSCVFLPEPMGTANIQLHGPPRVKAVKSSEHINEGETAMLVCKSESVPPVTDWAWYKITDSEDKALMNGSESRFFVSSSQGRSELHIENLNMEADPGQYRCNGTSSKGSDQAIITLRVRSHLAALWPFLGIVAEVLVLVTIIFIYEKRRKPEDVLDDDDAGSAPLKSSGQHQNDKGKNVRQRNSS
Protocol: Wild type KBM7 or MCT1-null cells were seeded in HBSS and exposed for up to 20 minutes to 100 μM ^14C-labeled 3-BrPA (6.8 mCi/mmole) (Moravek) with or without competitor molecules like 3-BrPA, Pyruvate, L-Lactate and D-Lactate. Cells were washed with cold HBSS, lysed in a NaOH buffer, and uptake measured using a liquid scintillation counter.

O=C(O)C(=O)CBr [3-BrPA, 3-bromopyruvic acid]
sensitivity to 3-BrPA [1]: highly sensitive | sensitivity to 3-BrPA ([2]; MDA-MB-231, low MCT1 level): resistant | sensitivity to 3-BrPA with stable expression of MCT1 ([2]; MDA-MB-231 stably expressing MCT1 cDNA): sufficient to sensitize | sensitivity to 3-BrPA ([3]; SK-BR-3, low MCT1 level): resistant | sensitivity to 3-BrPA with stable expression of MCT1 ([3]; SK-BR-3 stably expressing MCT1 cDNA): sufficient to sensitize | sensitivity to 3-BrPA ([4]; BT-549, increased MCT1 level): sensitive | sensitivity to 3-BrPA with suppression of GAPDH expression by RNAi ([4]; BT-549 expressing shRNA targeted to GAPDH vs GFP control): markedly increased the sensitivity | sensitivity to 3-BrPA with partial suppression of MCT1 by RNAi ([4]; BT-549 expressing shRNAs targeting MCT1): sufficient to confer resistance | sensitivity to 3-BrPA ([5]; breast cancer lines with high MCT1 protein levels): sensitive | sensitivity to 3-BrPA ([5]; breast cancer lines with low to no MCT1): resistant to even high concentrations | sensitivity to 3-BrPA ([6]; MDA-MB-468, increased MCT1 level): sensitive | sensitivity to 3-BrPA with suppression of GAPDH expression by RNAi ([6]; MDA-MB-468 expressing shRNA targeted to GAPDH vs GFP control): markedly increased the sensitivity | AMPK and ACC phosphorylation, markers of energy stress [7]: did not affect | extracellular acidification rate (ECAR), a proxy for lactate production [8]: substantial decrease | 3-BrPA uptake on reduction in extracellular pH ([9]; wild type KBM7, radiolabeled 3-BrPA, 20 minutes): enhanced | competition with the uptake of radiolabeled 3-BrPA ([9]; wild type KBM7 in HBSS, up to 20 minutes, unlabeled competitor): effectively competed
